Reference: article PMC4543647, “Structural and Functional Analysis of BipA, a Regulator of Virulence in Enteropathogenic Escherichia coli” (The Journal of Biological Chemistry, 2015)
Like-named read-outs stand apart in the source and are kept apart here.

Key:
BipA (TypA or YihK) [1] = target: T1, BipA (TypA or YihK) (Escherichia coli, UniProt P0DTT0); experiment: isothermal titration calorimetry; crystal structure […] A; type: binding; settings: read-out: Ka (converted)
BipA (TypA or YihK) [2] = target: T1, BipA (TypA or YihK); experiment: as above; type: binding

T1 sequence (P0DTT0 whole entry): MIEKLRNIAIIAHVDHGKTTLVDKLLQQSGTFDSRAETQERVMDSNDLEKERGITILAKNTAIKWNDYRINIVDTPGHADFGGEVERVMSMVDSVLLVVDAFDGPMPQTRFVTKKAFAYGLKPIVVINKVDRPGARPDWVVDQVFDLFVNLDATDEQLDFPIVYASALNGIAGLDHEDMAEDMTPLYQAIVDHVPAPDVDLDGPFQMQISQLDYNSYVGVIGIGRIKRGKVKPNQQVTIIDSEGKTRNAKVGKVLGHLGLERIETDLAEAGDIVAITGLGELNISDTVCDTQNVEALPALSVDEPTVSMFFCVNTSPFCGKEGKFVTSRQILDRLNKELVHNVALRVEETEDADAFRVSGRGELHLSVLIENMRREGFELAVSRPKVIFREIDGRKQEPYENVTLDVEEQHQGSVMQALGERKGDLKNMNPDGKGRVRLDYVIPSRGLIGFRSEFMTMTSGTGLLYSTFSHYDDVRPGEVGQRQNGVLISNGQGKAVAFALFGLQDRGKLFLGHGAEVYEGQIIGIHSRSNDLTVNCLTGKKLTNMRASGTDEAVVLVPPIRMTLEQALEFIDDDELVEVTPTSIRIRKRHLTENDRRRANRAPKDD

Compound	Kd (BipA (TypA or YihK) [1]) [µM]	Kd (BipA (TypA or YihK) [2]) [µM]
Nc1nc2c(ncn2[C@@H]2O[C@H](COP(=O)(O)OP(=O)(O)O)[C@@H](O)[C@H]2O)c(=O)[nH]1 [GDP]	14.5	
Nc1nc2c(ncn2[C@@H]2O[C@H](COP(=O)(O)OP(=O)(O)O)[C@@H](OP(=O)(O)OP(=O)(O)O)[C@H]2O)c(=O)[nH]1 [ppGpp, guanosine-3′, 5′-bis pyrophosphate]		41.7
